Measurements as given in the NIST ThermoML archive (doi:10.1021/je050050p).

Experiment: xn = mol fraction of the nth substance listed
Conditions: Liquid, Vibrating tube method

CN(C)C=O [dimethylformamide] + O=C=O
Conditions | mass density [kg/m3]
313.15 K, 15999 kPa, x2 = 0.2876 | 958.91
313.15 K, 16006 kPa, x2 = 0.4461 | 967.34
313.15 K, 16007 kPa, x2 = 0.4268 | 966.35
313.15 K, 17000 kPa, x2 = 0.4268 | 967.35
313.15 K, 17005 kPa, x2 = 0.2876 | 959.75
313.15 K, 17007 kPa, x2 = 0.4461 | 968.38
313.15 K, 17985 kPa, x2 = 0.4461 | 969.42
313.15 K, 17994 kPa, x2 = 0.4268 | 968.36
313.15 K, 18009 kPa, x2 = 0.2876 | 960.57
313.15 K, 19015 kPa, x2 = 0.4461 | 970.46
313.15 K, 19017 kPa, x2 = 0.4268 | 969.38
313.15 K, 19021 kPa, x2 = 0.2876 | 961.39
313.15 K, 19994 kPa, x2 = 0.4268 | 970.35
313.15 K, 20001 kPa, x2 = 0.2876 | 962.21
313.15 K, 20007 kPa, x2 = 0.4461 | 971.48
313.15 K, 20983 kPa, x2 = 0.4268 | 971.33
313.15 K, 20996 kPa, x2 = 0.4461 | 972.47
313.15 K, 21004 kPa, x2 = 0.2876 | 963
313.15 K, 22022 kPa, x2 = 0.2876 | 963.82
313.15 K, 22022 kPa, x2 = 0.4461 | 973.5
313.15 K, 22024 kPa, x2 = 0.4268 | 972.32
313.15 K, 22993 kPa, x2 = 0.4461 | 974.47
313.15 K, 23016 kPa, x2 = 0.2876 | 964.58
313.15 K, 23020 kPa, x2 = 0.4268 | 973.26
313.15 K, 23989 kPa, x2 = 0.2876 | 965.35
313.15 K, 23996 kPa, x2 = 0.4461 | 975.45
313.15 K, 24016 kPa, x2 = 0.4268 | 974.2
313.15 K, 24992 kPa, x2 = 0.4461 | 976.41
313.15 K, 24996 kPa, x2 = 0.4268 | 975.14
313.15 K, 25004 kPa, x2 = 0.2876 | 966.15
313.16 K, 5026 kPa, x2 = 0.4502 | 955.28
313.16 K, 5988 kPa, x2 = 0.4502 | 956.32
313.16 K, 6028 kPa, x2 = 0.4068 | 955.07
313.16 K, 7004 kPa, x2 = 0.4502 | 957.42
313.16 K, 7010 kPa, x2 = 0.4068 | 956.12
313.16 K, 7999 kPa, x2 = 0.4502 | 958.57
313.16 K, 8028 kPa, x2 = 0.4068 | 957.19
313.16 K, 9005 kPa, x2 = 0.4068 | 958.24
313.16 K, 9031 kPa, x2 = 0.4502 | 959.69
313.16 K, 10012 kPa, x2 = 0.4502 | 960.79
313.16 K, 10041 kPa, x2 = 0.4068 | 959.33
313.16 K, 10994 kPa, x2 = 0.4068 | 960.3
313.16 K, 11036 kPa, x2 = 0.4502 | 961.92
313.16 K, 11990 kPa, x2 = 0.4068 | 961.32
313.16 K, 12022 kPa, x2 = 0.4502 | 963.01
313.16 K, 12989 kPa, x2 = 0.4068 | 962.33
313.16 K, 13014 kPa, x2 = 0.4502 | 964.13
313.16 K, 14015 kPa, x2 = 0.4502 | 965.19
313.16 K, 14027 kPa, x2 = 0.4068 | 963.34
313.16 K, 14992 kPa, x2 = 0.4068 | 964.31
313.16 K, 15005 kPa, x2 = 0.4502 | 966.24
313.16 K, 15994 kPa, x2 = 0.4068 | 965.3
313.16 K, 16019 kPa, x2 = 0.4502 | 967.32
313.16 K, 16994 kPa, x2 = 0.4068 | 966.27
313.16 K, 17003 kPa, x2 = 0.4502 | 968.34
313.16 K, 17999 kPa, x2 = 0.4502 | 969.4
313.16 K, 18006 kPa, x2 = 0.4068 | 967.25
313.16 K, 18978 kPa, x2 = 0.4068 | 968.19
313.16 K, 19033 kPa, x2 = 0.4502 | 970.43
313.16 K, 19978 kPa, x2 = 0.4502 | 971.41
313.16 K, 20043 kPa, x2 = 0.4068 | 969.19
313.16 K, 21007 kPa, x2 = 0.4502 | 972.47
313.16 K, 21020 kPa, x2 = 0.4068 | 970.1
313.16 K, 22002 kPa, x2 = 0.4068 | 970.98
313.16 K, 22023 kPa, x2 = 0.4502 | 973.48
313.16 K, 23040 kPa, x2 = 0.4502 | 974.49
313.16 K, 23059 kPa, x2 = 0.4068 | 971.98
313.16 K, 24007 kPa, x2 = 0.4502 | 975.45
313.16 K, 24032 kPa, x2 = 0.4068 | 972.87
313.16 K, 24995 kPa, x2 = 0.4502 | 976.42
313.16 K, 25024 kPa, x2 = 0.4068 | 973.76
323.07 K, 9001 kPa, x2 = 0.6235 | 928.72
323.07 K, 10031 kPa, x2 = 0.6235 | 931.44
323.07 K, 11013 kPa, x2 = 0.6235 | 933.93
323.07 K, 12042 kPa, x2 = 0.6235 | 936.47
323.07 K, 13033 kPa, x2 = 0.6235 | 938.86
323.07 K, 13992 kPa, x2 = 0.6235 | 941.1
323.07 K, 14972 kPa, x2 = 0.6235 | 943.31
323.07 K, 15993 kPa, x2 = 0.6235 | 945.57
323.07 K, 16998 kPa, x2 = 0.6235 | 947.71
323.07 K, 18015 kPa, x2 = 0.6235 | 949.84
323.07 K, 18988 kPa, x2 = 0.6235 | 951.84
323.07 K, 20012 kPa, x2 = 0.6235 | 953.89
